Source: article PMC5843810, “18th European Symposium on Radiopharmacy and Radiopharmaceuticals” (EJNMMI Radiopharmacy and Chemistry, 2016)
Read-outs that look alike come from different tables or passages of the source. Values belong to the molecule of their own block, whether it stands above or below them.

Key:
[1] = target: prostacyclin receptor (IPR) (Homo sapiens, UniProt P43119); test: Affinity for prostacyclin receptor (IPR); assay type: binding
Description: This concept was applied to the development of a prostacyclin receptor (IPR) tracer.

[2] = CHI(IAM) non-specific binding measurement; assay type: physicochemical; conditions: experimental non-specific binding measurement
Excerpt: Materials and methods: Similarly to the Ligand Efficiency (LE) index, we explored the usefulness of the Ligand Specific Efficiency index (LSE), which we defined as the ratio between affinity (expressed as e.g. pIC50 or pKd), and the logarithmic value of the experimental non-specific binding measurement, CHI(IAM).^[Jiang] LSE provides a measure of affinity, normalized to non-specific binding.

MCHR1 = MCHR1 (Rattus norvegicus, UniProt P97639); conditions: rats, n=3
Sequence of MCHR1 (P97639 whole entry): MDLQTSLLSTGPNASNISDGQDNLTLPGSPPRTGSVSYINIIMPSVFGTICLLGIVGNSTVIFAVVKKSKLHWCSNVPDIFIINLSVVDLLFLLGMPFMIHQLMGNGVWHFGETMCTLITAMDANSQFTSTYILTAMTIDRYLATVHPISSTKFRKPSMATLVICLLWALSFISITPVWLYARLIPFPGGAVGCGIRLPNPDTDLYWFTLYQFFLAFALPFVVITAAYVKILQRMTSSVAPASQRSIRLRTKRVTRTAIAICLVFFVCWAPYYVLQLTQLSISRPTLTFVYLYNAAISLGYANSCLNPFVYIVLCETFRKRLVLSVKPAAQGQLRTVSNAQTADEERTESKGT
Description: Materials and methods: In vivo experiments were conducted in naïve male Sprague Dawley rats. For small-animal PET/CT/MR experiments, rats were anesthetized by isoflurane. 25min after [^18F]FE@SNAP iv injection (47.8±1MBq; SA: 19.7±6GBq/μmol), vehicle (baseline group, n=3) or 15mg/kg SNAP-7941 (blocking group, n=3) were administered through the tail vein. 75min after tracer injection, the rats were sacrificed. Radioactivity concentrations in brain were calculated and expressed as SUVs. In another set of experiments, [^18F]FE@SNAP (51.3±26MBq; SA: 36.1±28GBq/μmol) as well as vehicle (baseline group, n=3) or 15mg/kg SNAP-7941 (blocking group, n=3) were injected into conscious freely moving rats via a permanent catheter implanted into the jugular vein, thus excluding an influence of anaesthesia. 45min after tracer application, rats were sacrificed, the brain was removed and cut for ex vivo autoradiography. Subsequently, brain slices were put on Phosphor Imager plates for exposure and analyzed with a Cyclone Phosphor Imager the following day. Regions of interest (ROIs) were drawn for the hypothalamic region, the ventricle and a non-target region.

PSMA = target: T1, PSMA (Homo sapiens, UniProt Q04609); test: Competitive binding assay on PSMA-positive LNCaP cells against 68Ga-PSMA-10; conditions: against 68Ga-PSMA-10, cold reference compounds
T1 construct: endogenous in cells; host or cells: LNCaP
T1 sequence (Q04609 whole entry): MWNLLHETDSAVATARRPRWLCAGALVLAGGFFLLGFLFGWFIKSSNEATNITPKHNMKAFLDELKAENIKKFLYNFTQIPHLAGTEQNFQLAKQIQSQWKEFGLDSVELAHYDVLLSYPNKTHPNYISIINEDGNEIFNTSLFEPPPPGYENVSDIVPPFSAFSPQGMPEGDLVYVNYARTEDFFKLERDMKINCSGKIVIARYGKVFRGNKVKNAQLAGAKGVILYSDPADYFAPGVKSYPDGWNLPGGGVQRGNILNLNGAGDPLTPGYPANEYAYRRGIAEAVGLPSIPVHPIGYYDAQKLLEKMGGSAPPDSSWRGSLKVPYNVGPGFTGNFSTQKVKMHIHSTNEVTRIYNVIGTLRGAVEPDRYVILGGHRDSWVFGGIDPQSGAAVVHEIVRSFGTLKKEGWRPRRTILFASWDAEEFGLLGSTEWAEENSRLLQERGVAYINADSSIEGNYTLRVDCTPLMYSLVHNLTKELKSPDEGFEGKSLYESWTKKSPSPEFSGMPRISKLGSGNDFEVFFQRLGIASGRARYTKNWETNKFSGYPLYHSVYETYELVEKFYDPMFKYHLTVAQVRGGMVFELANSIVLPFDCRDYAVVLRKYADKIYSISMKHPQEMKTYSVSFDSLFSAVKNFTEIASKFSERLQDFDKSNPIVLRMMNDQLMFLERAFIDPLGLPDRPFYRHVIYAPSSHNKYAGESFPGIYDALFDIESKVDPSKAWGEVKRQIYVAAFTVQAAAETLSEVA
Description: (§1) Materials and methods: The PSMA binding motif Glu-NH-CO-NH-Lys was synthesized by a well-established method (4) using solid phase chemistry and subsequently an amino acid linker was built up by fmoc-based solid phase peptide synthesis (SPPS). The non-radioactive reference compounds were also prepared analogically and eventually conjugated by 6-fluoronicotinic acid. After separation from the resin and deprotection the peptidomimetics were labeled using the TFP-ester of 6-[^18F]fluoronicotinic acid as prosthetic group. The Ki values of all compounds were determined by competitive binding assays on PSMA-positive LNCaP cells against ^68Ga-PSMA-10 (5) using the respective cold reference compounds. Additionally, the cellular internalization of the radiofluorinated ligands was determined.

LNCaP cells = test: Cellular internalization of radiofluorinated PSMA ligands; assay type: cell-based; conditions: in vitro
Description: as §1

[3] = system: U-87 MG and SKOV-3 tumours; conditions: 1 h after injection
Description: The in vitro binding characteristics of FPyPEGCBT-c(RGDfK) were analysed by standard binding assay in U-87 MG and SKOV-3 cancer models and its selectivity towards integrins by siRNA depletions. Its preclinical potential was studied in mice bearing subcutaneous tumours by ex vivo biodistribution studies and in vivo microPET/CT imaging.

in vivo = conditions: C57BL/6, mouse, αvβ3-positive melanoma tumor, iv, total radioactivity
Description: Materials and methods: cRGDfK was functionalized with N3CH2COOH and N3PEG7COOH at ε-amino group of lysine. […] Biodistribution study of the two radiotracers was carried out in C57BL/6 mice bearing αvβ3-positive melanoma tumors. The radioactive preparation (~3.7 MBq/animal, 100 μL) was injected intravenously through the lateral tail vein. At different time intervals after injection (30, 60, and 180 min), the animals (n = 4/time point) were sacrificed and the relevant organs excised for measurement of retained activity.

CSF-1R = target: T2, CSF-1R (Rattus norvegicus, UniProt Q00495); assay type: in vivo; conditions: female rats
T2 construct: from tissue; host or cells: living female rats (brain)
T2 sequence (Q00495 20-978): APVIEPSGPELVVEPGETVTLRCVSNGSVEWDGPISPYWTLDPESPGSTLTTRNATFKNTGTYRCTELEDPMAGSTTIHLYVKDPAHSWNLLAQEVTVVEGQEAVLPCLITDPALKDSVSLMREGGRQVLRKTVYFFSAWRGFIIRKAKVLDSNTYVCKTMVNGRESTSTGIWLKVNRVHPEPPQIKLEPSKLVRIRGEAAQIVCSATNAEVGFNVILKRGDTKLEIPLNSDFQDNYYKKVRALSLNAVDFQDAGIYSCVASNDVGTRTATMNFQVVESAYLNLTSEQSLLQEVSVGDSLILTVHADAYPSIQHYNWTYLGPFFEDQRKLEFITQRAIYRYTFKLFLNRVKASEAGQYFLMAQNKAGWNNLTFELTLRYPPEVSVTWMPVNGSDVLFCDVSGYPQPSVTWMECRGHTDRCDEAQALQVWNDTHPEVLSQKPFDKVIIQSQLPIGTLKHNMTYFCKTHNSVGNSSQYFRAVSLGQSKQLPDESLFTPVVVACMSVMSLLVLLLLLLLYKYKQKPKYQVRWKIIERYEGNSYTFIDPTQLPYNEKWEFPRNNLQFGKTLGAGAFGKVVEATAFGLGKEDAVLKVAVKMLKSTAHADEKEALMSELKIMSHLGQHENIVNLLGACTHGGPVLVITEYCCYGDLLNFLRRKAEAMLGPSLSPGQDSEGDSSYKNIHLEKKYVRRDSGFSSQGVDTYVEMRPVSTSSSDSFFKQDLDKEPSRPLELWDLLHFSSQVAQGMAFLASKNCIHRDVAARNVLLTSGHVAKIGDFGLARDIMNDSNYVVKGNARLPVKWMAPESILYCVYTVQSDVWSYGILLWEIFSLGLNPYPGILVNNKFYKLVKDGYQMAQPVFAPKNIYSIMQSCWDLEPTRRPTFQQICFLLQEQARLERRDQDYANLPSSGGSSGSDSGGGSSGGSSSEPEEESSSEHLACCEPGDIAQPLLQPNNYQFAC
Excerpt: (§2) Materials and methods: All the chemicals and reagents used in the experiments were obtained from commercial sources and used without any further purification. Synthesis of 5-cyano-N-(4-(4-methylpiperazine-1-yl)-2-(4-methylpiperidin-1-yl)phenyl)furan-2-carboxamide and 5-cyano-N-(2-(4-methylpiperidine-1-yl)-4-(piperazine-1-yl)phenyl)furan-2-carboxamide molecules were done according to literature methods available with slight modifications for radiolabeling experiments^3. The [^11C]-methyl triflate reacts with the precursor in presence of a base at room temperature for 2 minutes gives the carbon-11 radiolabeled [^11C]BA-1 which was purified by using semi-preparative reversed-phase high pressure liquid chromatography (RP-HPLC). The peak corresponding the reference compound will be collected and checked for the purity using analytical RP-HPLC. Baseline biodistribution study was performed at 2, 10, 30 and 60 min. respectively. Blocking experiment (10 mg/kg cold compound) was performed at 30 min time point in healthy female adult mice n=3 and compared with vehicle treated batch. In vitro autoradiography experiments were carried on rat brain slices by incubating tracer and cold blocking solution. MicroPET imaging studies were performed on a Focus™ 220 microPET scanner with female rats.

[4] = assay type: in vivo; conditions: healthy mice, 2 min
Excerpt: as §2

[5] = Biodistribution and pharmacokinetics in healthy Balb/C mice; assay type: in vivo
Description: (§3) Material and methods: [^18F]Amylovis® was synthesized by nucleophilic substitution of the tosyl group of the precursor. Thirty five healthy male Balb/C mice of 10-12 weeks were divided into […] of 5 animals each and injected with similar doses of [^18F]Amylovis® through a lateral tail vein. Blood samples were collected and the animals were sacrificed at 5, 15, 30, 45, 70 and 180 minutes. Organs of interest were removed and washed with saline. Radioactivity of blood, plasma, urine, faeces, brain, cerebellum, heart, liver, stomach, spleen, bowel, colon, left kidney, muscle, bone and tail was measured in a well counter. To assess protein binding, plasma samples were diluted with acetonitrile and centrifuged at 4000 g. Pellets of proteins and supernatants were separated and their radioactivity measured in a well counter. RadioTLC analysis of plasma were performed for the same purpose in silicagel 60 and mobile phase of acetonitrile/water (95/5). 20μL of each supernatant was analysed by HPLC-RP using a C18 column and acetonitrile/water (75/25) as mobile phase to identify plasma metabolites. Pharmacokinetic parameters (AUC, t1/2, Cmax, Cl, Vss) were calculated using non-compartmental analysis (NCA). Dynamic PET/CT images of healthy and transgenic APPSwe/PS1dE9 mice were acquired for 2.5 h after i.v. administration. […]

[6] = Plasma protein binding (acetonitrile precipitation, radioTLC); assay type: in vitro ADME, mice; conditions: mouse plasma
Description: as §3

[7] = PET/CT imaging in nude mice bearing U87MG xenograft tumor; assay type: in vivo; conditions: mouse, 90 min post injection
Description: Materials and methods: The PET imaging properties of [^68Ga]FSC(succ-RGD)3 were studied in nude mice bearing M21 human melanoma xenografts and human glioblastoma U87MG xenograft tumor. A parallel PET imaging of ^68GaNODAGA-RGD in same mouse bearing U87MG xenograft tumor was performed as a comparison.

[8] = over 6 h, analytical HPLC
Description: (§4) Materials and methods: [^18F]MEL050 was synthesized using a one-step bromine-for-fluorine nucleophilic heteroaromatic substitution. Briefly, [^18F]MEL050 was prepared from a bromo-precursor, using no-carrier-added 18F-KF-Kryptofix 222 (dimethylformamide, 150°C, 6 min), followed by preparative HPLC purification (C18 column (300x7.8 mm, 7 μm), isocratic elution with acetonitrile/20 mM ammonium bicarbonate (20:80, v/v), 3.0 ml/min) and cartridge-reformulation (Sep-Pak® Plus C18 environmental) of the collected fraction. Radiochemical and chemical purity, stability and specific activity measurements were monitored using analytical HPLC. Chemical identity of the labeled compound [^18F]MEL050 was assessed by co-injection with non-radioactive standard MEL050. Experimental model of pulmonary metastatic melanoma was obtained by IV injection of B16-F10 cells in NMRI mice. Mice (n=8) were imaged 15 days after inoculation, using INVEON microPET/CT device (Siemens), after IV injection of 0.36±0.04MBq/g of [^18F]MEL050. Dynamic and static acquisitions were acquired from time of injection to 2h after tracer injection. The maximum percentage of [^18F]MEL050 Injected Dose per g of lung tissue (%ID/g Max) was determined using ROIs manually drawn on 1h-post injection PET images, and correlated to ex-vivo findings.

[9] = system: B16-F10 pulmonary metastatic melanoma; conditions: NMRI mice, B16-F10 lung metastases, 1h-post injection PET, n=8
Description: as §4

Sequence of prostacyclin receptor (IPR) (P43119 whole entry, species assumed): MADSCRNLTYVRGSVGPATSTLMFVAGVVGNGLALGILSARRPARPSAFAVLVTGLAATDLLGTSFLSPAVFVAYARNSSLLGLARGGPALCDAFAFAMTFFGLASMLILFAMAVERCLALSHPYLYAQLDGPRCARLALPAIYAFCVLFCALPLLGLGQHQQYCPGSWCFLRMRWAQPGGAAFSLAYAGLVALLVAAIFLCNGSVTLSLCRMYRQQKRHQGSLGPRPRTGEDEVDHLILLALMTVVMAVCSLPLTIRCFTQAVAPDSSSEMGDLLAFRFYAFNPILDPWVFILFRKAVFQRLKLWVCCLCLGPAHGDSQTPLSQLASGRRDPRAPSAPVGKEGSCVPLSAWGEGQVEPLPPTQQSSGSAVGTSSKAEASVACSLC

Molecule: CC(C)Oc1ccc(Cc2ccc(NC3=NCCN3)cc2)cc1.Cl [Ro1138452]
Ki [1]: 0.23 nM | CHI(IAM) [2]: 58

Molecule: COCC1=C(C(=O)OCC[18F])C(c2ccc(F)c(F)c2)N(C(=O)NCCCN2CCC(c3cccc(NC(C)=O)c3)CC2)C(=O)N1 (stereo not drawn) [[18F]FE@SNAP]
SUV in the ventricular system, blocking group (MCHR1; 15mg/kg SNAP-7941 25min after tracer): 0.34±0.07 SUV | SUV in the ventricular system, baseline group (MCHR1; vehicle 25min after tracer): 0.73±0.11 SUV

Molecule: PSMA-1007
Ki (PSMA): 6 nM | internalization ratio (LNCaP cells): about 70%

Molecule: [18F]FPyPEGCBT-c(RGDfK) (head to tail)
tumour uptake, SKOV-3 [3]: 2.4 %ID/g | tumour uptake, U-87 MG [3]: 2.9 %ID/g

Molecule: N=C(N)NCCC[C@@H]1NC(=O)[C@H](CCCCNC(=O)CCOCCOCCOCCOCCOCCOCCOCCn2cc(C[C@H](N)C(=O)O)nn2)NC(=O)[C@@H](Cc2ccccc2)NC(=O)[C@H](CC(=O)O)NC(=O)CNC1=O [99mTc(CO)3-Pra-Tz-PEG7-cRGDfK, metal not drawn]
tissue uptake at 0.5 h (in vivo): 4.11 ± 0.51 %ID/g

Molecule: N=C(N)NCCC[C@@H]1NC(=O)[C@H](CCCCNC(=O)Cn2cc(C[C@H](N)C(=O)O)nn2)NC(=O)[C@@H](Cc2ccccc2)NC(=O)[C@H](CC(=O)O)NC(=O)CNC1=O [99mTc(CO)3-Pra-Tz-CH2-cRGDfK, metal not drawn]
tissue uptake at 0.5 h (in vivo): 3.01 ± 0.77 %ID/g

brain SUV, baseline (CSF-1R; baseline microPET): 1.2 SUV | brain SUV, with blocking (CSF-1R; blocking with cold compound): 2 SUV | lung uptake [4]: 14 % ID | tracer uptake into the brain [4]: 4 % ID
Molecule: CC1CCN(c2cc(N3CCN(C)CC3)ccc2NC(=O)c2ccc(C#N)o2)CC1 [[11C]-BA1, 5-cyano-N-(4-(4-methylpiperazine-1-yl)-2-(4-methylpiperidin-1-yl)phenyl)furan-2-carboxamide]

Molecule: COc1ccc2cc(CCC[18F])ccc2c1 [[18F]Amylovis®, [^18F]-2-(3-fluoropropyl)-6-methoxynaphtalene]
Plasma T1/2 ([5]; Balb/C mice, i.v., non-compartmental analysis): 37 min | blood brain barrier crossing ([5]; mice): crossed blood brain barrier | protein binding [6]: No significant protein binding

Molecule: C/C1=C/C(=O)N(O)CCC[C@H](NC(=O)CCC(=O)NCCCC[C@@H]2NC(=O)[C@@H](Cc3ccccc3)NC(=O)[C@H](CC(=O)O)NC(=O)CNC(=O)[C@H](CCCNC(=N)N)NC2=O)C(=O)OCC/C(C)=C\C(=O)N(O)CCC[C@H](NC(=O)CCC(=O)NCCCC[C@@H]2NC(=O)[C@@H](Cc3ccccc3)NC(=O)[C@H](CC(=O)O)NC(=O)CNC(=O)[C@H](CCCNC(=N)N)NC2=O)C(=O)OCC/C(C)=C\C(=O)N(O)CCC[C@H](NC(=O)CCC(=O)NCCCC[C@@H]2NC(=O)[C@@H](Cc3ccccc3)NC(=O)[C@H](CC(=O)O)NC(=O)CNC(=O)[C@H](CCCNC(=N)N)NC2=O)C(=O)OCC1 [[68Ga]FSC(succ-RGD)3, metal not drawn]
tissue to tissue ratio at […] ([7]; tumour and kidneys, read-out: tumor/kidneys ratio): 1.3 | tissue to tissue ratio at […] ([7]; tumour and muscle, read-out: tumor/muscle ratio): 4.9

Molecule: CCN(CC)CCNC(=O)c1ccc([18F])nc1 [[18F]MEL050]
product stability (RCP) [8]: > 98% | %ID/g Max in lung tumours [9]: 4.7±2.6%
